According to ChEMBL document CHEMBL1142486, “Anti-inflammatory activities of furanoditerpenoids and other constituents from Fibraurea tinctoria” (2008):

What was measured:
Mus musculus [1] = experiment: Antiinflammatory activity against carrageenan-induced paw edema in ICR mouse at 50 mg/kg, ip administered 30 mins before carrageenan challenge assessed after 0.5 hrs; format: functional; settings: route intraperitoneal
Mus musculus [2] = experiment: Antiinflammatory activity against carrageenan-induced paw edema in ICR mouse at 50 mg/kg, ip administered 30 mins before carrageenan challenge assessed after 1 hr; format: functional; settings: route intraperitoneal
Mus musculus [3] = experiment: Antiinflammatory activity against carrageenan-induced paw edema in ICR mouse at 50 mg/kg, ip administered 30 mins before carrageenan challenge assessed after 2 hrs; format: functional; settings: route intraperitoneal
Mus musculus [4] = experiment: Antiinflammatory activity against carrageenan-induced paw edema in ICR mouse at 50 mg/kg, ip administered 30 mins before carrageenan challenge assessed after 3 hrs; format: functional; settings: route intraperitoneal
Mus musculus [5] = experiment: Antiinflammatory activity against carrageenan-induced paw edema in ICR mouse at 50 mg/kg, ip administered 30 mins before carrageenan challenge assessed after 4 hrs; format: functional; settings: route intraperitoneal
Mus musculus [6] = experiment: Antiinflammatory activity against carrageenan-induced paw edema in ICR mouse at 50 mg/kg, ip administered 30 mins before carrageenan challenge assessed after 5 hrs; format: functional; settings: route intraperitoneal
Mus musculus [7] = experiment: Antiinflammatory activity against carrageenan-induced paw edema in ICR mouse at 100 mg/kg, ip administered 30 mins before carrageenan challenge assessed after 0.5 hrs; format: functional; settings: route intraperitoneal
Mus musculus [8] = experiment: Antiinflammatory activity against carrageenan-induced paw edema in ICR mouse at 100 mg/kg, ip administered 30 mins before carrageenan challenge assessed after 1 hr; format: functional; settings: route intraperitoneal
Mus musculus [9] = experiment: Antiinflammatory activity against carrageenan-induced paw edema in ICR mouse at 100 mg/kg, ip administered 30 mins before carrageenan challenge assessed after 2 hrs; format: functional; settings: route intraperitoneal
Mus musculus [10] = experiment: Antiinflammatory activity against carrageenan-induced paw edema in ICR mouse at 100 mg/kg, ip administered 30 mins before carrageenan challenge assessed after 3 hrs; format: functional; settings: route intraperitoneal
Mus musculus [11] = experiment: Antiinflammatory activity against carrageenan-induced paw edema in ICR mouse at 100 mg/kg, ip administered 30 mins before carrageenan challenge assessed after 4 hrs; format: functional; settings: route intraperitoneal
Mus musculus [12] = experiment: Antiinflammatory activity against carrageenan-induced paw edema in ICR mouse at 100 mg/kg, ip administered 30 mins before carrageenan challenge assessed after 5 hrs; format: functional; settings: route intraperitoneal
RAW264.7 = experiment: Inhibition of LPS-induced nitric oxide production in mouse RAW264.7 cells assessed as nitrite levels in supernatant after 24 hrs by griess assay; format: functional, cell-based
Mus musculus [13] = experiment: Antiinflammatory activity against carrageenan-induced paw edema in ICR mouse at 4 mg/kg, ip administered 30 mins before carrageenan challenge assessed after 0.5 hrs; format: functional; settings: route intraperitoneal
Mus musculus [14] = experiment: Antiinflammatory activity against carrageenan-induced paw edema in ICR mouse at 4 mg/kg, ip administered 30 mins before carrageenan challenge assessed after 1 hr; format: functional; settings: route intraperitoneal
Mus musculus [15] = experiment: Antiinflammatory activity against carrageenan-induced paw edema in ICR mouse at 4 mg/kg, ip administered 30 mins before carrageenan challenge assessed after 2 hrs; format: functional; settings: route intraperitoneal
Mus musculus [16] = experiment: Antiinflammatory activity against carrageenan-induced paw edema in ICR mouse at 4 mg/kg, ip administered 30 mins before carrageenan challenge assessed after 3 hrs; format: functional; settings: route intraperitoneal
Mus musculus [17] = experiment: Antiinflammatory activity against carrageenan-induced paw edema in ICR mouse at 4 mg/kg, ip administered 30 mins before carrageenan challenge assessed after 4 hrs; format: functional; settings: route intraperitoneal
Mus musculus [18] = experiment: Antiinflammatory activity against carrageenan-induced paw edema in ICR mouse at 4 mg/kg, ip administered 30 mins before carrageenan challenge assessed after 5 hrs; format: functional; settings: route intraperitoneal

Row | SMILES | Activity (Mus musculus [1]) | Activity (Mus musculus [2]) | Activity (Mus musculus [3]) | Activity (Mus musculus [4]) | Activity (Mus musculus [5]) | Activity (Mus musculus [6]) | Activity (Mus musculus [7]) | Activity (Mus musculus [8]) | Activity (Mus musculus [9]) | Activity (Mus musculus [10]) | Activity (Mus musculus [11]) | Activity (Mus musculus [12]) | Activity (RAW264.7) | Activity (Mus musculus [13]) | Activity (Mus musculus [14]) | Activity (Mus musculus [15]) | Activity (Mus musculus [16]) | Activity (Mus musculus [17]) | Activity (Mus musculus [18])
1 | C[C@@]12C[C@@H](c3ccoc3)OC(=O)[C@H]1CC[C@@H]1[C@H]2C[C@@H]2OC(=O)[C@@]1(O)[C@@H]2O [FIBRAURETIN B] | 14% | 20.1% | 24.03% | 23.43% | 26.73% | 28.34% | 11.45% | 19.17% | 16.73% | 15.21% | 17.69% | 18.16% | – | – | – | – | – | – | –
2 | C[C@@]12C[C@H](c3ccoc3)OC(=O)[C@@H]1CC[C@@]1(CO[C@@H]3O[C@H](CO)[C@@H](O)[C@H](O)[C@H]3O)C(=O)C=CC[C@H]12 | – | – | – | – | – | – | – | – | – | – | – | – | Dose-dependent effect | – | – | – | – | – | –
3 | C[C@@]12CC=C3C(=O)O[C@@H](c4ccoc4)C[C@@]3(C)[C@@H]1CC=CC2=O [FIBARURETIN D] | 19.44% | 24.17% | 25.18% | 21.55% | 20.67% | 20.5% | 17% | 20.91% | 22.79% | 21.47% | 23.67% | 23.41% | – | – | – | – | – | – | –
4 | C[C@@]12C[C@H](c3ccoc3)OC(=O)[C@@H]1[C@@H](O)C[C@]1(C)[C@H]2[C@@H]2OC(=O)[C@@]1(O)[C@H]1O[C@@H]21 | – | – | – | – | – | – | – | – | – | – | – | – | Dose-dependent effect | – | – | – | – | – | –
5 | COC(=O)C1=CCC[C@H]2[C@]3(C)C[C@@H](c4ccoc4)OC(=O)[C@H]3CC[C@@]12C [FLORIBUNDIC ESTER] | 16.27% | 20.95% | 21.51% | 21.84% | 21.85% | 20.18% | 13.07% | 15.46% | 16.78% | 13.95% | 14.9% | 13.07% | – | – | – | – | – | – | –
6 | C[C@@]12C[C@H](c3ccoc3)OC(=O)C1=CC[C@]1(C)[C@H]2[C@H]2C=C[C@]1(O[C@@H]1O[C@H](CO)[C@@H](O)[C@H](O)[C@H]1O)C(=O)O2 [FIBLEUCINOSIDE] | 15.64% | 18.8% | 24.26% | 22.82% | 24.01% | 23.88% | 14.91% | 19.05% | 19.82% | 21.31% | 22.01% | 20.11% | – | – | – | – | – | – | –
7 | C[C@@]12C[C@H](c3ccoc3)OC(=O)[C@@H]1CC[C@]1(C)[C@H]2[C@@H]2OC(=O)[C@@]1(O)[C@H]1O[C@@H]21 [CHASMANTHIN] | 15.39% | 18.46% | 22.41% | 23.99% | 31.6% | 32.49% | 13.15% | 18.75% | 21.76% | 21.23% | 23.73% | 20.71% | – | – | – | – | – | – | –
8 | C[C@@]12C[C@H](c3ccoc3)OC(=O)C1=CC[C@]1(C)[C@H]2[C@@H]2OC(=O)[C@@]1(O[C@@H]1O[C@H](CO)[C@@H](O)[C@H](O)[C@H]1O)[C@H]1O[C@@H]21 [FIBRAURINOSIDE] | 17.12% | 18.18% | 18.99% | 20.36% | 20.89% | 18.48% | 18.67% | 23.03% | 25.07% | 25.03% | 25.25% | 24.8% | Dose-dependent effect | – | – | – | – | – | –
9 | C[C@@]12C[C@H](c3ccoc3)OC(=O)C1=CC[C@]1(C)[C@H]2[C@H]2C=C[C@]1(O)C(=O)O2 [FIBLEUCIN] | 11.8% | 13.12% | 17.97% | 21.61% | 25.29% | 25.6% | 14.56% | 17.79% | 20.68% | 24.44% | 26.19% | 26.02% | – | – | – | – | – | – | –
10 | COc1ccc2c(c1)c(CC(=O)O)c(C)n2C(=O)c1ccc(Cl)cc1 [INDOMETHACIN] | – | – | – | – | – | – | – | – | – | – | – | – | – | 20.77% | 21.48% | 19.53% | 18.52% | 17.04% | 16.3%
11 | C[C@@]12[C@H]3CC=C[C@@]1(O[C@@H]1O[C@H](CO)[C@@H](O)[C@H](O)[C@H]1O)C(=O)O[C@@H]2C[C@]1(O)C(=O)O[C@H](c2ccoc2)C[C@@]31C | – | – | – | – | – | – | – | – | – | – | – | – | Dose-dependent effect | – | – | – | – | – | –
12 | C[C@@]12C[C@H](c3ccoc3)OC(=O)C1=CC[C@]1(C)[C@H]2[C@@H]2OC(=O)[C@@]1(O)[C@H]1O[C@@H]21 [FIBRAURIN] | 19.68% | 27.17% | 28.66% | 30.5% | 32.19% | 33.57% | 10.1% | 12.44% | 14% | 10.85% | 11.41% | 10.61% | Dose-dependent effect | – | – | – | – | – | –
